Experimental data: PMC5844530, “Fosmetpantotenate (RE-024), a phosphopantothenate replacement therapy for pantothenate kinase-associated neurodegeneration: Mechanism of action and efficacy in nonclinical models” (PLoS ONE, 2018)
Several values for one entry are separate records, joined by “and”; a condition that tells them apart may be missing. Identical values can stand only once.

What was measured:
[1] = Pharmacokinetics in whole blood, CD-1 mice; settings: for % Parent AUCAll: CD1 mouse, metabolite AUCall/Parent AUCall x 100; for Whole Blood Conc. of compound 2: CD-1 mice; for concentration at 0.083 h / concentration at 2 h / concentration at 4 h / concentration at 8 h / concentration at 0.333 h / concentration at 0.5 h / concentration at 1 h: male, CD-1, mouse, whole blood, po, Whole Blood Conc. of compound 2, CD-1 mice
Experimental: (§1) The whole blood samples (0.5 mL) were collected into syringes that were prefilled with 2.5 mL of ice-cold 0.1% formic acid in acetonitrile. The volume ratio of the whole blood to 0.1% formic acid in acetonitrile was 1/5 (v/v). Samples were frozen (-70°C) until analyzed by LC-MS/MS.
(§2) Standard curves and quality control (QC) samples were prepared fresh on the day of analysis by serial dilution of the standard mixture in quenched whole blood (1 part of blood to 5 parts of 0.1% formic acid in acetonitrile) and centrifuged. […] The frozen study samples were thawed in an ice/water bath and centrifuged. Supernatant (50 μL) from standards, QC samples, and study samples was transferred to a 96-well plate and dried completely under nitrogen. The dried residues were reconstituted with 100 μL of 0.1% formic acid in water containing internal standard (5 ng/mL of ^15N/^13C3-RE-024-02) and analyzed by LC-MS/MS.
(§3) LC-MS/MS analysis for blood pharmacokinetic samples: Samples were analyzed using an Agilent 1100 binary pump (Agilent Technologies, Santa Clara, CA, USA), connected to an AB Sciex API 6500 mass spectrometer (SCIEX, Framingham, MA, USA). An electrospray ionization source was used, scanning in the positive mode. […] The chromatography column was a Varian Metasil AQ 120–5 C18 column, 5 μm, 50 x 2.00 mm (Part No. A0530050X020) at ambient temperature, with a 0.5 mL/min flow rate and a 20 μL injection volume. Mobile phase (A) consisted of 0.1% formic acid in water; while mobile phase (B) consisted of 0.1% formic acid in acetonitrile:water (9:1, v/v).
(§4) Quantitation of in vivo samples: Peak areas were integrated using Analyst software (AB Sciex, Concord, Ontario, Canada). […] Calibration standards (at a minimum 7 per curve) were fit by linear regression with (1/x^2) weighting. QC samples were used (triplicate) at 3 concentrations for all tandem mass spectrometry (MS/MS) runs.
(§5) Pharmacokinetic calculations: PK analysis was performed using Phoenix WinNonlin®, Build 6.3.0.395 (Certara, Princeton, NJ, USA) using a non-compartmental model (PO dose = model 200 for extravascular dosing). […] Post-dose concentrations below the limit of quantitation (BLQ) were omitted from calculation.

[2] = Pharmacokinetics in whole blood, cynomolgus monkeys
Experimental: as §1, §2, §3, §4, §5

[3] = Pharmacokinetics in whole blood, Sprague-Dawley rats; settings: for % Parent AUCAll: Sprague-Dawley rat, metabolite AUCall/Parent AUCall x 100; for Whole Blood Conc. of compound 2: Sprague-Dawley rats; for concentration at 4 h / concentration at 8 h / concentration at 2 h / concentration at 0.5 h: Sprague-Dawley, rat, whole blood, po, Whole Blood Conc. of compound 2, Sprague-Dawley rats
[4] = 100 mg/kg, single 100 mg/kg RE-024-02 PO, LLOQ 3 ng/mL
[5] = 100 mg/kg, single 100 mg/kg RE-024-02 PO, LLOQ 10.2 nM

For `COC(=O)CCNC(=O)[C@@H]1OP(=O)(O)OCC1(C)C` [Compound 2], the “% Parent AUCAll” value ([1]; 100 mg/kg PO) was 8,550%, the “% Parent AUCAll” value ([1]; 300 mg/kg PO) was 29,800% and the “% Parent AUCAll” value ([1]; 700 mg/kg PO) was 7,220%. The “Whole Blood Conc. of compound 2” value ([1]; single 300 mg/kg RE-024-02 PO, 0.333 hr, LLOQ 3 ng/mL, 300 mg/kg) was 495 ng/mL and 550.2 ng/mL and 391.2 ng/mL, the “Whole Blood Conc. of compound 2” value ([1]; single 300 mg/kg RE-024-02 PO, 0.333 hr, LLOQ 10.2 nM, 300 mg/kg) was 1676.7 nM and 1863.6 nM and 1325.1 nM and the “Whole Blood Conc. of compound 2” value ([1]; single 300 mg/kg RE-024-02 PO, 0.5 hr, LLOQ 3 ng/mL, 300 mg/kg) was 472.2 ng/mL and 328.2 ng/mL and 282 ng/mL. The “Whole Blood Conc. of compound 2” value ([1]; single 300 mg/kg RE-024-02 PO, 0.5 hr, LLOQ 10.2 nM, 300 mg/kg) was 1599.4 nM and 1111.7 nM and 955.2 nM, the “Whole Blood Conc. of compound 2” value ([1]; single 300 mg/kg RE-024-02 PO, 4 hr, LLOQ 3 ng/mL, 300 mg/kg) was 15.4 ng/mL and 22.8 ng/mL and 26.2 ng/mL and the “Whole Blood Conc. of compound 2” value ([1]; single 300 mg/kg RE-024-02 PO, 4 hr, LLOQ 10.2 nM, 300 mg/kg) was 52.2 nM and 77.2 nM and 88.6 nM. The “Whole Blood Conc. of compound 2” value ([1]; single 700 mg/kg RE-024-02 PO, 0.333 hr, LLOQ 3 ng/mL, 700 mg/kg) was 1656 ng/mL, the “Whole Blood Conc. of compound 2” value ([1]; single 700 mg/kg RE-024-02 PO, 0.333 hr, LLOQ 10.2 nM, 700 mg/kg) was 5609.2 nM and the “Whole Blood Conc. of compound 2” value ([1]; single 700 mg/kg RE-024-02 PO, 1 hr, LLOQ 3 ng/mL, 700 mg/kg) was 318 ng/mL and 373.2 ng/mL and 381 ng/mL. For the same compound, the “Whole Blood Conc. of compound 2” value ([1]; single 700 mg/kg RE-024-02 PO, 1 hr, LLOQ 10.2 nM, 700 mg/kg) was 1077.1 nM and 1264.1 nM and 1290.5 nM, the “Whole Blood Conc. of compound 2” value ([1]; single 700 mg/kg RE-024-02 PO, 4 hr, LLOQ 3 ng/mL, 700 mg/kg) was 84 ng/mL and 92.4 ng/mL and 88.2 ng/mL and the “Whole Blood Conc. of compound 2” value ([1]; single 700 mg/kg RE-024-02 PO, 4 hr, LLOQ 10.2 nM, 700 mg/kg) was 284.5 nM and 313 nM and 298.8 nM. The concentration at 0.083 h [1, 4] was 17.4 ng/mL, the concentration at 0.083 h [1, 5] was 58.9 nM and the concentration at 2 h [1, 4] was 5.1 ng/mL. For the same compound, the concentration at 2 h [1, 5] was 17.3 nM, the concentration at 4 h ([1]; 100 mg/kg, single 100 mg/kg RE-024-02 PO, 4 hr, LLOQ 3 ng/mL) was 3.5 ng/mL and the concentration at 4 h ([1]; 100 mg/kg, single 100 mg/kg RE-024-02 PO, 4 hr, LLOQ 10.2 nM) was 11.7 nM. For the same compound, the concentration at 8 h [1, 4] was 3.5 ng/mL, the concentration at 8 h [1, 5] was 11.9 nM and the concentration at 0.333 h ([1]; 300 mg/kg, single 300 mg/kg RE-024-02 PO, 0.333 hr, LLOQ 3 ng/mL) was 443 ng/mL. The concentration at 0.333 h ([1]; 300 mg/kg, single 300 mg/kg RE-024-02 PO, 0.333 hr, LLOQ 10.2 nM) was 1500 nM, the concentration at 0.5 h ([1]; 300 mg/kg, single 300 mg/kg RE-024-02 PO, 0.5 hr, LLOQ 3 ng/mL) was 254 ng/mL and the concentration at 0.5 h ([1]; 300 mg/kg, single 300 mg/kg RE-024-02 PO, 0.5 hr, LLOQ 10.2 nM) was 860 nM. It also gave a concentration at 4 h ([1]; 300 mg/kg, single 300 mg/kg RE-024-02 PO, 4 hr, LLOQ 3 ng/mL) of 21.9 ng/mL, a concentration at 4 h ([1]; 300 mg/kg, single 300 mg/kg RE-024-02 PO, 4 hr, LLOQ 10.2 nM) of 74.2 nM and a concentration at 0.333 h ([1]; 700 mg/kg, single 700 mg/kg RE-024-02 PO, 0.333 hr, LLOQ 3 ng/mL) of 1910 ng/mL. For the same compound, the concentration at 0.333 h ([1]; 700 mg/kg, single 700 mg/kg RE-024-02 PO, 0.333 hr, LLOQ 10.2 nM) was 6460 nM, the concentration at 1 h ([1]; 700 mg/kg, single 700 mg/kg RE-024-02 PO, 1 hr, LLOQ 3 ng/mL) was 541 ng/mL and the concentration at 1 h ([1]; 700 mg/kg, single 700 mg/kg RE-024-02 PO, 1 hr, LLOQ 10.2 nM) was 1830 nM. The concentration at 4 h ([1]; 700 mg/kg, single 700 mg/kg RE-024-02 PO, 4 hr, LLOQ 3 ng/mL) was 104 ng/mL, the concentration at 4 h ([1]; 700 mg/kg, single 700 mg/kg RE-024-02 PO, 4 hr, LLOQ 10.2 nM) was 354 nM and the “% Parent AUCAll” value ([2]; Cynomolgus monkey, 300 mg/kg PO, metabolite AUCall/Parent AUCall x 100) was 132%. The concentration at 0.5 h ([2]; cynomolgus monkey, whole blood, po, 300 mg/kg, Concentration of compound 2 in whole blood, cynomolgus monkeys, single oral 300 mg/kg fosmetpantotenate, 0.5 hr, LLOQ 2.03 nM) was 1860 nM, the concentration at 1 h ([2]; cynomolgus monkey, whole blood, po, 300 mg/kg, Concentration of compound 2 in whole blood, cynomolgus monkeys, single oral 300 mg/kg fosmetpantotenate, 1 hr, LLOQ 2.03 nM) was 1970 nM and the concentration at 4 h ([2]; cynomolgus monkey, whole blood, po, 300 mg/kg, Concentration of compound 2 in whole blood, cynomolgus monkeys, single oral 300 mg/kg fosmetpantotenate, 4 hr, LLOQ 2.03 nM) was 2350 nM. For the same compound, the concentration at 8 h ([2]; cynomolgus monkey, whole blood, po, 300 mg/kg, Concentration of compound 2 in whole blood, cynomolgus monkeys, single oral 300 mg/kg fosmetpantotenate, 8 hr, LLOQ 2.03 nM) was 1150 nM, the “Concentration of compound 2 in whole blood” value ([2]; cynomolgus monkeys, single oral 300 mg/kg fosmetpantotenate, 0.083 hr, LLOQ 2.03 nM) was “BQL” and the “Concentration of compound 2 in whole blood” value ([2]; cynomolgus monkeys, single oral 300 mg/kg fosmetpantotenate, 0.5 hr, LLOQ 2.03 nM, 300 mg/kg) was 1210.45 nM. The “Concentration of compound 2 in whole blood” value ([2]; cynomolgus monkeys, single oral 300 mg/kg fosmetpantotenate, 1 hr, LLOQ 2.03 nM, 300 mg/kg) was 2023.57 nM, the “Concentration of compound 2 in whole blood” value ([2]; cynomolgus monkeys, single oral 300 mg/kg fosmetpantotenate, 4 hr, LLOQ 2.03 nM, 300 mg/kg) was 4441.22 nM and the “Concentration of compound 2 in whole blood” value ([2]; cynomolgus monkeys, single oral 300 mg/kg fosmetpantotenate, 8 hr, LLOQ 2.03 nM, 300 mg/kg) was 996.85 nM. For the same compound, the “% Parent AUCAll” value ([3]; 300 mg/kg PO) was 1,250%, the “% Parent AUCAll” value ([3]; 700 mg/kg PO) was 220% and the “Whole Blood Conc. of compound 2” value ([3]; single 300 mg/kg RE-024-02 PO, time 2, LLOQ 3 ng/mL, 300 mg/kg) was 38.46 ng/mL and 47.10 ng/mL. For the same compound, the “Whole Blood Conc. of compound 2” value ([3]; single 300 mg/kg RE-024-02 PO, time 2, LLOQ 10.2 nM, 300 mg/kg) was 130.27 nM and 159.54 nM, the “Whole Blood Conc. of compound 2” value ([3]; single 300 mg/kg RE-024-02 PO, time 8, LLOQ 3 ng/mL, 300 mg/kg) was 5.25 ng/mL and 7.14 ng/mL and the “Whole Blood Conc. of compound 2” value ([3]; single 300 mg/kg RE-024-02 PO, time 8, LLOQ 10.2 nM, 300 mg/kg) was 17.78 nM and 24.18 nM. The “Whole Blood Conc. of compound 2” value ([3]; single 700 mg/kg RE-024-02 PO, time 0.5, LLOQ 3 ng/mL, 700 mg/kg) was 247.20 ng/mL and 285.00 ng/mL, the “Whole Blood Conc. of compound 2” value ([3]; single 700 mg/kg RE-024-02 PO, time 0.5, LLOQ 10.2 nM, 700 mg/kg) was 837.31 nM and 965.35 nM and the “Whole Blood Conc. of compound 2” value ([3]; single 700 mg/kg RE-024-02 PO, time 2, LLOQ 3 ng/mL, 700 mg/kg) was 61.80 ng/mL and 118.20 ng/mL. For the same compound, the “Whole Blood Conc. of compound 2” value ([3]; single 700 mg/kg RE-024-02 PO, time 2, LLOQ 10.2 nM, 700 mg/kg) was 209.33 nM and 400.37 nM, the concentration at 4 h ([3]; 100 mg/kg, single 100 mg/kg RE-024-02 PO, time 4, LLOQ 3 ng/mL) was 5.57 ng/mL and the concentration at 4 h ([3]; 100 mg/kg, single 100 mg/kg RE-024-02 PO, time 4, LLOQ 10.2 nM) was 18.9 nM. It also gave a concentration at 8 h ([3]; 100 mg/kg, single 100 mg/kg RE-024-02 PO, time 8, LLOQ 3 ng/mL) of 6.42 ng/mL, a concentration at 8 h ([3]; 100 mg/kg, single 100 mg/kg RE-024-02 PO, time 8, LLOQ 10.2 nM) of 21.8 nM and a concentration at 2 h ([3]; 300 mg/kg, single 300 mg/kg RE-024-02 PO, time 2, LLOQ 10.2 nM) of 258 nM. The concentration at 8 h ([3]; 300 mg/kg, single 300 mg/kg RE-024-02 PO, time 8, LLOQ 3 ng/mL) was 9.36 ng/mL, the concentration at 8 h ([3]; 300 mg/kg, single 300 mg/kg RE-024-02 PO, time 8, LLOQ 10.2 nM) was 31.7 nM and the concentration at 2 h ([3]; male, 300 mg/kg, single 300 mg/kg RE-024-02 PO, time 2, LLOQ 3 ng/mL) was 76.2 ng/mL. It also gave a concentration at 0.5 h ([3]; male, 700 mg/kg, single 700 mg/kg RE-024-02 PO, time 0.5, LLOQ 3 ng/mL) of 452 ng/mL, a concentration at 0.5 h ([3]; male, 700 mg/kg, single 700 mg/kg RE-024-02 PO, time 0.5, LLOQ 10.2 nM) of 1530 nM and a concentration at 2 h ([3]; male, 700 mg/kg, single 700 mg/kg RE-024-02 PO, time 2, LLOQ 3 ng/mL) of 105 ng/mL. For the same compound, the concentration at 2 h ([3]; male, 700 mg/kg, single 700 mg/kg RE-024-02 PO, time 2, LLOQ 10.2 nM) was 356 nM.
